In PMC6009887, “New quinoxalinone inhibitors targeting secreted phospholipase A2 and α-glucosidase” (Journal of Enzyme Inhibition and Medicinal Chemistry, 2017):
Read-outs that look alike come from different tables or passages of the source.

Experiments:
pG-IB sPLA2 = pG-IB sPLA2 (Sus scrofa, UniProt P00592); assay: Inhibition of sPLA2 activity, colorimetric lecithin/red phenol assay, group IB; type: biochemical, porcine
Protocol: (§3) Briefly, the substrate consisted of 3.5 mM lecithin in a mixture of 3 mM NaTDC “Sodium taurodeoxycholate”, 100 mM NaCl, 10 mM CaCl2, and 0.055 mM red phenol as colorimetric indicator in 100 ml H2O. The pH of the reaction mixture was adjusted to 7.6. The human group IB (pG-IB), IIA (hG-IIA), V (hG-V), X (hG-X), and XII (hG-XII) sPLA2 were solubilised in 10% acetonitrile at a concentration of 0.02 μg/μL. A volume of 10 μL of these PLA2 solutions was incubated with 10 μL of each compound for 20 min at room temperature. […] The inhibition percentage was calculated by comparison with a control experiment (absence of compound).

hG-X sPLA2 = target: T1, hG-X sPLA2 (Homo sapiens, UniProt O15496); assay: Inhibition of sPLA2 activity, colorimetric lecithin/red phenol assay, group X; type: biochemical
T1 sequence (O15496 43-165): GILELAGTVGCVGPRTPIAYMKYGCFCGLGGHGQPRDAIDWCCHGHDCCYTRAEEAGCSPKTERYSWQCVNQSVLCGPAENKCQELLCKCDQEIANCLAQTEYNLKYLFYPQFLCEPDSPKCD
Protocol: (§1) The test of inhibitory activity of sPLA2 was performed as described by Lobo de Araujo and Radvanyi[41]. Briefly, the substrate consisted of 3.5 mM lecithin in a mixture of 3 mM NaTDC “Sodium taurodeoxycholate”, 100 mM NaCl, 10 mM CaCl2, and 0.055 mM red phenol as colorimetric indicator in 100 ml H2O. The pH of the reaction mixture was adjusted to 7.6. The human group IB (pG-IB), IIA (hG-IIA), V (hG-V), X (hG-X), and XII (hG-XII) sPLA2 were solubilised in 10% acetonitrile at a concentration of 0.02 μg/μL. A volume of 10 μL of these PLA2 solutions was incubated with 10 μL of each compound for 20 min at room temperature. Then, 1 ml of the PLA2 substrate was added, and the kinetic of hydrolysis was followed during 5 min by reading the optical density at 558 nm. The inhibition percentage was calculated by comparison with a control experiment (absence of compound).
(§2) In order to evaluate the potential anti-inflammatory activity of the 12 studied compounds, we tested their inhibitory effects using several human sPLA2 isozymes, […], hG-V, hG-X, and hG-XII, involved in the inflammatory process and porcine pG-IB sPLA2 which hydrolyses dietary phospholipids.

hG-IIA sPLA2 = target: T2, hG-IIA sPLA2 (Homo sapiens, UniProt P14555); assay: Inhibition of sPLA2 activity, colorimetric lecithin/red phenol assay, group IIA; type: biochemical
T2 sequence (P14555 21-144): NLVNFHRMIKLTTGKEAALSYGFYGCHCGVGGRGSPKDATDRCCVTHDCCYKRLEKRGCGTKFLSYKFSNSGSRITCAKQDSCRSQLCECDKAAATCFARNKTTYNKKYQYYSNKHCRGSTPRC
Protocol: as §3

hG-V sPLA2 = target: T3, hG-V sPLA2 (Homo sapiens, UniProt P39877); assay: Inhibition of sPLA2 activity, colorimetric lecithin/red phenol assay, group V; type: biochemical
T3 sequence (P39877 21-138): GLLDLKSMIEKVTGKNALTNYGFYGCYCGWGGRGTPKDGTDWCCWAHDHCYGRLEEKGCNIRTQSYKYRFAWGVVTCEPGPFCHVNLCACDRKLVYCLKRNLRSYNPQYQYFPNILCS
Protocol: as §1, §2

hG-XIIA sPLA2 = target: T4, hG-XIIA sPLA2 (Homo sapiens, UniProt Q9BZM1); assay: Inhibition of sPLA2 activity, colorimetric lecithin/red phenol assay, group XII; type: biochemical
T4 sequence (Q9BZM1 23-189): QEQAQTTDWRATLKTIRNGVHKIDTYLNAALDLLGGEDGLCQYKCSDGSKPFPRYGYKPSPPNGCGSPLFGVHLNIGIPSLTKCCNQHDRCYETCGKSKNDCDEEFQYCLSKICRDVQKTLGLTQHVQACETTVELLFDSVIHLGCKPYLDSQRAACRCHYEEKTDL
Protocol: as §3

[1] = ± standard deviation, duplicate, read-out: IC50 (µM) Against Phospholipase pG-IB
[2] = ± standard deviation, duplicate, read-out: IC50 (µM) Against Phospholipase hG-X
[3] = ± standard deviation, duplicate, read-out: IC50 (µM) Against Phospholipase hG-IIA
[4] = ± standard deviation, duplicate, read-out: IC50 (µM) Against Phospholipase hG-V
[5] = ± standard deviation, duplicate, read-out: IC50 (µM) Against Phospholipase hG-XIIA

Chain of pG-IB sPLA2 (P00592 23-146): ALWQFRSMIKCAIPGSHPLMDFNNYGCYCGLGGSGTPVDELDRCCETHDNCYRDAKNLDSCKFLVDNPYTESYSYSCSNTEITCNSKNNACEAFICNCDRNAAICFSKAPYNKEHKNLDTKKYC

| SMILES | IC50 (pG-IB sPLA2; [1]) [µM] | IC50 (hG-X sPLA2; [2]) [µM] | IC50 (hG-IIA sPLA2; [3]) [µM] | melting point [°C] | IC50 (hG-V sPLA2; [4]) [µM] | IC50 (hG-XIIA sPLA2; [5]) [µM] | IC50 (pG-IB sPLA2) [µM] | IC50 (hG-X sPLA2) [µM] | IC50 (hG-IIA sPLA2) [µM] | IC50 (hG-V sPLA2) [µM] | IC50 (hG-XIIA sPLA2) [µM] |
| --- | --- | --- | --- | --- | --- | --- | --- | --- | --- | --- | --- |
| O=c1[nH]c2ccccc2n2c(-c3ccc(O)cc3O)nnc12 [Compound 4c, 1-(2,4-Dihydroxyphenyl)-[1,2,4]triazolo[4,3-a]quinoxalin-4(5H)-one] | 14.8 ± 0.44 | 0.61 ± 0.03 | 1.32 ± 0.16 | > 300 | 1.05 ± 0.13 | 0.91 ± 0.05 |  |  |  |  |  |
| O=c1[nH]c2ccccc2n2c(-c3cccs3)nnc12 [Compound 4e, 1-(Thiophen-2-yl)-[1,2,4]triazolo[4,3-a]quinoxalin-4(5H)-one] | 16.8 ± 0.93 | 17.9 ± 0.94 | 16.8 ± 0.41 |  | 18.6 ± 0.56 | 18.6 ± 1.33 |  |  |  |  |  |
| O=c1[nH]c2ccccc2nc1N/N=C/c1ccc([N+](=O)[O-])cc1[N+](=O)[O-] [Compound 3b, (E)-3-(2-(2,4-dinitrobenzylidene)hydrazinyl)quinoxalin-2(1H)-one] |  |  |  | 283 to 285 |  |  | 10.7 ± 0.67 | 2.54 ± 0.42 | 5.36 ± 0.73 | 1.12 ± 0.31 | 2.28 ± 0.08 |
| CC1(C)CC[C@]2(C(=O)O)CC[C@]3(C)C(=CC[C@@H]4[C@@]5(C)CC[C@H](O)C(C)(C)[C@@H]5CC[C@]43C)[C@@H]2C1 [Oleanolic acid, reference compound] |  |  |  |  | 16.4 ± 1.53 |  |  |  |  |  |  |
| O=c1[nH]c2ccccc2n2c(-c3ccc(Cl)c(Cl)c3)nnc12 [Compound 4d, 1-(3,4-Dichlorophenyl)-[1,2,4]triazolo[4,3-a]quinoxalin-4(5H)-one] | 14.5 ± 0.87 | 2.71 ± 0.07 | 1.81 ± 0.04 |  | 3.04 ± 0.57 | 1.41 ± 0.07 |  |  |  |  |  |
| COc1cccc(-c2nnc3c(=O)[nH]c4ccccc4n23)c1 [Compound 4f, 1-(3-Methoxyphenyl)-[1,2,4]triazolo[4,3-a]quinoxalin-4(5H)-one] | 16 ± 1.71 | 14.4 ± 0.52 | 17.1 ± 0.41 | 286 to 288 | 15.8 ± 0.85 | 15.8 ± 1.29 |  |  |  |  |  |
| O=c1[nH]c2ccccc2nc1N/N=C/c1ccc(Cl)c(Cl)c1 [Compound 3d, (E)-3-(2-(3,4-dichlorobenzylidene)hydrazinyl)quinoxalin-2(1H)-one] | 13.5 ± 1.02 | 3 ± 0.63 | 4.5 ± 0.33 | 244 to 246 | 5.7 ± 0.27 | 10.5 ± 1.74 |  |  |  |  |  |
| COc1cc(-c2nnc3c(=O)[nH]c4ccccc4n23)cc(OC)c1OC [Compound 4a, 1-(3,4,5-Trimethoxyphenyl)-[1,2,4]triazolo[4,3-a]quinoxalin-4(5H)-one] | 14.2 ± 1.22 | 12.2 ± 0.47 | 13.05 ± 0.05 | 227 to 229 | 11.3 ± 0.08 | 13.2 ± 0.21 |  |  |  |  |  |
| O=c1[nH]c2ccccc2n2c(-c3ccc([N+](=O)[O-])cc3[N+](=O)[O-])nnc12 [Compound 4b, 1-(2,4-Dinitrophenyl)-[1,2,4]triazolo[4,3-a]quinoxalin-4(5H)-one] |  |  |  | > 300 |  |  | 13.6 ± 0.7 | 1.05 ± 0.08 | 0.76 ± 0.01 | 1.53 ± 0.14 | 2.58 ± 0.43 |

The next lines start with results.

| IC50 (pG-IB sPLA2; [1]) [µM] | IC50 (hG-X sPLA2; [2]) [µM] | IC50 (hG-IIA sPLA2; [3]) [µM] | melting point [°C] | IC50 (hG-V sPLA2; [4]) [µM] | IC50 (hG-XIIA sPLA2; [5]) [µM] | SMILES | IC50 (pG-IB sPLA2) [µM] | IC50 (hG-X sPLA2) [µM] | IC50 (hG-IIA sPLA2) [µM] | IC50 (hG-V sPLA2) [µM] | IC50 (hG-XIIA sPLA2) [µM] |
| --- | --- | --- | --- | --- | --- | --- | --- | --- | --- | --- | --- |
| 9.31 ± 0.36 | 1.26 ± 0.05 | 2.48 ± 0.28 | 258 to 260 | 1.46 ± 0.47 | 3.04 ± 0.67 | COc1cc(/C=N/Nc2nc3ccccc3[nH]c2=O)cc(OC)c1OC [Compound 3a, (E)-3-(2-(3,4,5-trimethoxybenzylidene)hydrazinyl)quinoxalin-2(1H)-one] |  |  |  |  |  |
| 13.3 ± 0.5 | 12.5 ± 0.87 | 3.71 ± 0.27 | 292 to 294 | 9.45 ± 0.13 | 6.75 ± 0.17 | O=c1[nH]c2ccccc2nc1N/N=C/c1ccc(O)cc1O [Compound 3c, (E)-3-(2-(2,4-dihydroxybenzylidene)hydrazinyl)quinoxalin-2(1H)-one] |  |  |  |  |  |
| 12.4 ± 0.03 | 0.33 ± 0.06 | 1.9 ± 0.3 |  | 1.22 ± 0.3 | 0.84 ± 0.07 | COc1cccc(/C=N/Nc2nc3ccccc3[nH]c2=O)c1 [Compound 3f, (E)-3-(2-(3-methoxybenzylidene)hydrazinyl)quinoxalin-2(1H)-one] |  |  |  |  |  |
| 10.7 ± 0.92 | 4.43 ± 1.03 | 2.81 ± 0.33 |  | 6.28 ± 0.4 | 3.81 ± 0.99 | O=c1[nH]c2ccccc2nc1N/N=C/c1cccs1 [Compound 3e, (E)-3-(2-(thiophen-2-ylmethylene)hydrazinyl)quinoxalin-2(1H)-one] |  |  |  |  |  |
